# Test results taken from patent publication US7626042B2, “O-substituted hydroxyaryl derivatives” (Institute of Medicinal Molecular Design, Inc., priority 2002, dated 2009).
# Where a name gives a salt, the structure may show the parent alone.
# Test system: NF-κB activation
# Test: Inhibitory activity against NF-κB activation, luciferase reporter assay under TNF-α stimulation
# Format: cell-based, human
# Details: HepG2 cells, TNF-α 40 ng/ml, 4 hours; for inhibition at 1 µg/mL / inhibition at 10 µg/mL: Homo sapiens, read-out: Inhibitory Ratio of NF-κ B Activation(%)
# Description: Inhibitory activity against NF-κB activation was measured by referring to the method of Hill et al. (Cell, (USA), in 1993, Vol. 73, No. 2, p. 395-406). Using a transfection reagent(Effectene; QIAGEN), the human hepatoma cell strain HepG2 was transfected with a plasmid (pNFκ Luc Reporter Plasmid; STRATAGENE) integrated with an oligonucleotide having five tandem copies of NF-κB binding sequences(TGGGGACTTTCCGC) on a upstream region of firefly luciferase gene (Luc) according to the QIAGEN's protocol, and the cells were incubated for 6 to 24 hours. Then the cells were cultured for 4 hours after the addition of TNF-α (40 ng/ml) in the presence of a test compound, and intracellular luciferase activity was measured by using PicaGene LT (TOYO INK MFG Co., Ltd.) and a chemical luminescence measurement apparatus(SPECTRAFluor Plus; TECAN). The inhibitory ratio was measured as a ratio relative to a value of the luciferase activity in the absence of the test compound.
Structure (SMILES),Inhibitory Ratio of NF-κ B Activation(%) (Drug Concentration 1 μg/mL),Inhibitory Ratio of NF-κ B Activation(%) (Drug Concentration 10 μg/mL),inhibition at 1 µg/mL (Drug Concentration 1 μg/mL),inhibition at 10 µg/mL (Drug Concentration 10 μg/mL)
CC(C)(Oc1ccc(Cl)cc1)C(=O)Oc1ccc(Cl)cc1C(=O)Nc1cc(C(F)(F)F)cc(C(F)(F)F)c1 [Compound 16],96.6%,98.4%,–,–
"CC(C)(C)C(=O)Oc1ccc(Cl)cc1C(=O)Nc1cc(C(F)(F)F)cc(C(F)(F)F)c1 [Compound 1, 5-Chloro-2-pivaloyloxy-N-[3,5-bis(trifluoromethyl)phenyl]benzamide]",–,–,94.9%,95.8%
O=C(Oc1ccc(Cl)cc1C(=O)Nc1cc(C(F)(F)F)cc(C(F)(F)F)c1)c1ccccc1 [Compound 4],94.2%,97.5%,–,–
CC(C)Oc1ccc(Cl)cc1C(=O)Nc1cc(C(F)(F)F)cc(C(F)(F)F)c1 [Compound 96],54.1%,96.1%,–,–
"CCOC(=O)CN(CC(=O)OCC)C(=O)OCOc1ccc(Cl)cc1C(=O)Nc1cc(C(F)(F)F)cc(C(F)(F)F)c1 [Compound 105, 2-({N,N-bis[(ethoxycarbonyl)methyl]carbamoyl}oxy)methoxy-5-chloro-N-[3,5-bis(trifluoromethyl)phenyl]benzamide]",–,–,71.8%,56%
"CC(C)C[C@H](N)C(=O)N[C@@H](Cc1ccccc1)C(=O)Oc1ccc(Cl)cc1C(=O)Nc1cc(C(F)(F)F)cc(C(F)(F)F)c1 [Compound 41, 5-Chloro-2-[N-(L-leucyl)-L-phenylalanyl]oxy-N-[3,5-bis(trifluoromethyl)phenyl]-benzamide hydrochloride]",–,–,91.4%,99.1%
O=C(Nc1cc(C(F)(F)F)ccc1C(F)(F)F)c1cc(Br)ccc1OP(=O)([O-])O.[Na+] [Compound 142],>99.9%,–,–,–
"O=C(Nc1cc(C(F)(F)F)cc(C(F)(F)F)c1)c1cc(Cl)ccc1OCOC(=O)N1CCOCC1 [Compound 102, 5-Chloro-2-[(morpholinocarbonyl)oxy]methoxy-N-[3,5-bis(trifluoromethyl)phenyl]-benzamide]",–,–,39.1%,70%
"CC(C)(C)OC(=O)N[C@@H](Cc1ccccc1)C(=O)Oc1ccc(Cl)cc1C(=O)Nc1cc(C(F)(F)F)cc(C(F)(F)F)c1 [Compound 28, 2-[N-(tert-butoxycarbonyl)-L-phenylalanyl]oxy-5-chloro-N-[3,5-bis(trifluoromethyl)-phenyl]benzamide]",–,–,96.4%,98.4%
"CC(C)[C@H](NC(=O)OC(C)(C)C)C(=O)Oc1ccc(Cl)cc1C(=O)Nc1cc(C(F)(F)F)cc(C(F)(F)F)c1 [Compound 24, 2-[N-(tert-butoxycarbonyl)-L-valyl]oxy-5-chloro-N-[3,5-bis(trifluoromethyl)phenyl]-benzamide]",–,–,96.3%,96.8%
"CC(C)C[C@H](NC(=O)[C@H](CCCCNC(=O)OC(C)(C)C)NC(=O)OC(C)(C)C)C(=O)Oc1ccc(Cl)cc1C(=O)Nc1cc(C(F)(F)F)cc(C(F)(F)F)c1 [Compound 39, 2-{N-[N^α,N^ε-di(tert-butoxycarbonyl)-L-lysyl]-L-leucyl}oxy-5-chloro-N-[3,5-bis(trifluoromethyl)phenyl]benzamide]",–,–,96.7%,98.4%
O=C1CCC(=O)N(c2cc(C(F)(F)F)cc(C(F)(F)F)c2)C(=O)c2cc(Cl)ccc2O1 [Compound 114],–,–,97.2%,98.5%
O=C(Nc1cc(C(F)(F)F)cc(C(F)(F)F)c1)c1cc(Cl)ccc1OCOC(=O)N1CCC(C(=O)O)CC1 [Compound 104],48.4%,58.8%,–,–
O=C(Nc1cc(C(F)(F)F)ccc1C(F)(F)F)c1ccccc1OC(=O)N1CCOCC1 [Compound 132],32.3%,–,–,–
"CC(C)(C)C(=O)c1sc(NC(=O)c2cc(Cl)ccc2OC(=O)N2CCOCC2)nc1C(C)(C)C [Compound 92, 5-Chloro-N-{4-[(1,1-dimethyl)ethyl]-5-[(2,2-dimethyl)propionyl]thiazol-2-yl}-2-[(morpholinocarbonyl)oxy]benzamide]",–,–,86.3%,93.9%
O=C(COc1ccc(Cl)cc1)Oc1ccc(Cl)cc1C(=O)Nc1cc(C(F)(F)F)cc(C(F)(F)F)c1 [Compound 13],96.6%,98.7%,–,–
"O=C(Nc1cc(C(F)(F)F)cc(C(F)(F)F)c1)c1cc(Cl)ccc1OP(=O)(OCc1ccccc1)OCc1ccccc1 [Compound 50, 5-chloro-2-(dibenzylphosphono)oxy-N-[3,5-bis(trifluoromethyl)phenyl]benzamide]",–,–,90.7%,97.1%
O=C(CCC(=O)Oc1ccc(Cl)cc1C(=O)Nc1cc(C(F)(F)F)cc(C(F)(F)F)c1)OCc1ccccc1 [Compound 18],95.4%,98.1%,–,–
CCOC(=O)OC(C)Oc1ccc(Cl)cc1C(=O)Nc1cc(C(F)(F)F)cc(C(F)(F)F)c1 (stereo not shown) [Compound 100],96.1%,98.5%,–,–

Structure (SMILES),Inhibitory Ratio of NF-κ B Activation(%) (Drug Concentration 1 μg/mL),Inhibitory Ratio of NF-κ B Activation(%) (Drug Concentration 10 μg/mL),inhibition at 1 µg/mL (Drug Concentration 1 μg/mL),inhibition at 10 µg/mL (Drug Concentration 10 μg/mL)
COC(=O)CC1(C(=O)OC)Oc2ccc(Cl)cc2C(=O)N1c1cc(C(F)(F)F)cc(C(F)(F)F)c1 (stereo not shown) [Compound 117],–,–,34.8%,56.7%
COc1ccccc1NC(=O)c1cc2cc(Br)ccc2cc1OP(=O)(O)O [Compound 53],21.5%,92.0%,–,–
"O=C(O)CNC(=O)Oc1ccc(Cl)cc1C(=O)Nc1cc(C(F)(F)F)cc(C(F)(F)F)c1 [Compound 57, 2-[N-(carboxymethyl)carbamoyl]oxy-5-chloro-N-[3,5-bis(trifluoromethyl)phenyl]-benzamide]",–,–,95.4%,97.2%
CC(C)(C)c1ccc(OP(=O)([O-])O)c(C(=O)Nc2cc(C(F)(F)F)cc(C(F)(F)F)c2)c1.[Na+] [Compound 139],64.3%,–,–,–
O=C(Nc1cc(C(F)(F)F)cc(C(F)(F)F)c1)c1cc(Cl)ccc1OC(=O)N1CCCC1 [Compound 70],48.1%,89.6%,–,–
Cl.NCC(=O)Oc1ccc(Cl)cc1C(=O)Nc1cc(C(F)(F)F)cc(C(F)(F)F)c1 [Compound 23],19.8%,97.3%,–,–
"CCOC(=O)C1CCN(C(=O)OCOc2ccc(Cl)cc2C(=O)Nc2cc(C(F)(F)F)cc(C(F)(F)F)c2)CC1 [Compound 103, 5-Chloro-2-({[4-(ethoxycarbonyl)piperidin-1-yl]carbonyl}oxy)methoxy-N-[3,5-bis(trifluoromethyl)phenyl]benzamide]",–,–,40.4%,45.9%
"O=C(Nc1cc(C(F)(F)F)cc(C(F)(F)F)c1)c1c(OC(=O)N2CCOCC2)ccc2ccccc12 [Compound 83, 2-(Morpholinocarbonyl)oxy-N-[3,5-bis(trifluoromethyl)phenyl]-1-naphthamide]",–,–,23.5%,18%
CC(C)(C)C(=O)OCOc1ccc(Cl)cc1C(=O)Nc1cc(C(F)(F)F)cc(C(F)(F)F)c1 [Compound 99],92.3%,94.7%,–,–
CS(=O)(=O)Oc1ccc(Cl)cc1C(=O)Nc1cc(C(F)(F)F)cc(C(F)(F)F)c1 [Compound 44],85.9%,98.6%,–,–
O=C(Nc1cc(C(F)(F)F)cc(C(F)(F)F)c1)c1cc(Cl)ccc1OC(=O)N1CCC(C(=O)O)CC1 [Compound 74],56.2%,58.1%,–,–
CCCS(=O)(=O)Oc1ccc(Cl)cc1C(=O)Nc1cc(C(F)(F)F)cc(C(F)(F)F)c1 [Compound 45],84.7%,95.4%,–,–
CN1CCN(C(=O)Oc2ccc(Cl)cc2C(=O)Nc2cc(C(F)(F)F)cc(C(F)(F)F)c2)CC1 [Compound 72],39.4%,35.2%,–,–
COCOc1ccc(Cl)cc1C(=O)Nc1cc(C(F)(F)F)cc(C(F)(F)F)c1 [Compound 97],21.6%,94.4%,–,–
"CC(C)(C)OC(=O)[C@H](Cc1ccccc1)NC(=O)CNC(=O)Oc1ccc(Cl)cc1C(=O)Nc1cc(C(F)(F)F)cc(C(F)(F)F)c1 [Compound 61, (S)-2-[N-({N-[1-(tert-butoxycarbonyl)-2-phenylethyl]carbamoyl}methyl)carbamoyl]oxy-5-chloro-N-[3,5-bis(trifluoromethyl)phenyl]benzamide]",–,–,98.6%,99.2%
CC(C)NC(=O)Oc1ccc(Cl)cc1C(=O)Nc1cc(C(F)(F)F)cc(C(F)(F)F)c1 [Compound 54],96.0%,98.0%,–,–
O=C(Oc1ccccc1C(=O)Nc1cc(C(F)(F)F)ccc1C(F)(F)F)c1ccccc1O [Compound 131],>99.9%,–,–,–
CC(C)C[C@H](NC(=O)[C@@H](N)CCCCN)C(=O)Oc1ccc(Cl)cc1C(=O)Nc1cc(C(F)(F)F)cc(C(F)(F)F)c1.Cl.Cl [Compound 40],96.2%,97.5%,–,–
